“Also recorded” adds a separate entry of the source.

The source of these data is paper PMC4307180, “Overcoming myelosuppression due to synthetic lethal toxicity for FLT3-targeted acute myeloid leukemia therapy” (eLife, 2014).

The target of one assay is T1, FLT3 (Homo sapiens, UniProt P36888).
T1 sequence (P36888 27-993): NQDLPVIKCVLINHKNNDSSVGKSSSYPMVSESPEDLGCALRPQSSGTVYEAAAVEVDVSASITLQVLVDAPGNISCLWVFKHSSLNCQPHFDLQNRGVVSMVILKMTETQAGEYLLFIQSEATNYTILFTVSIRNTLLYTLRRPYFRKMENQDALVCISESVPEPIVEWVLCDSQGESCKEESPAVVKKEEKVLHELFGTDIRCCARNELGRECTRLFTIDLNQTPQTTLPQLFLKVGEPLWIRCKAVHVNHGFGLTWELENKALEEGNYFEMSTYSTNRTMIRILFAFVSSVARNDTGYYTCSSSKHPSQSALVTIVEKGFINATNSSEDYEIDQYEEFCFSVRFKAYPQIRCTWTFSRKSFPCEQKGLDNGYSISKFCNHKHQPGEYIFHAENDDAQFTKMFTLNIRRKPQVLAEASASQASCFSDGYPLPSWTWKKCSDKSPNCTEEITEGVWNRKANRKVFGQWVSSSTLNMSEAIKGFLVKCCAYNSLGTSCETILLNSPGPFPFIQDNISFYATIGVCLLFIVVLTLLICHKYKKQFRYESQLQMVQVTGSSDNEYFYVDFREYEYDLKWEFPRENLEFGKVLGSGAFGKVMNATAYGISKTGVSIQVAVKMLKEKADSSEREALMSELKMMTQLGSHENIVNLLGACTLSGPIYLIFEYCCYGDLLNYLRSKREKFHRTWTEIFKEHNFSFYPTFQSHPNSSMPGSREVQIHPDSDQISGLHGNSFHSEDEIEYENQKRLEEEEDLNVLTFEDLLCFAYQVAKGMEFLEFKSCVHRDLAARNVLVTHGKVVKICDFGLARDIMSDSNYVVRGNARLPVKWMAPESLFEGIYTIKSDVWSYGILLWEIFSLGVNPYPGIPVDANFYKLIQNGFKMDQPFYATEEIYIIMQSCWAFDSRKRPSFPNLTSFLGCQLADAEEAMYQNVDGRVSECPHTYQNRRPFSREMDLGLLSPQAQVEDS
As to the kind of experiment: Reaction Biology Corp kinase assay at Km-ATP (Figure 1C), FLT3.

In assay [1] the test system is primary patient FLT3 D835 AML circulating blasts. The experiment in a line: Colony-forming assay, primary patient FLT3-D835 AML blasts. Format: cell-based, human. An excerpt: Primary AML blood samples and/or marrow aspirates were obtained on an IRB-approved protocol at the University of California, San Francisco. Informed consent was obtained in accordance with the Declaration of Helsinki. Mononuclear cells were purified by density centrifugation (Ficoll–Paque Plus, GE Healthsciences) before cryopreservation in 10% (vol/vol) DMSO or FCS (primary ITD and D835-mutant assays, Figure 3A–C) or immediate use in assays (Normal BM and SPB, Figure 3D–F). Normal BM and stimulated peripheral blood (SPB) samples were collected from donors at the UCSF oncology/hematology division. Cells were then suspended in MethoCult methylcellulose (Stem Cell Technologies, product no. H4435 Enriched, Canada) in 15-ml Falcon tubes, vigorously vortexed, bubbles settled over 10 min. Triplicates then plated via blunt-nosed syringe (1.1 ml each) into 3-cm dishes, avoiding bubble generation, and each dish placed in a larger 10-cm dish with water trough in an incubator (37°C, 5% CO2) for 13–14 days. Colonies were counted individually using traditional microscopy. CFU and BFU types reported separately (CFU-GEMM colonies counted as one of each).

For the next assay, the system named is Ba/F3 FLT3 ITD + F691L. As to the kind of experiment: Ba/F3 cell viability, FLT3 ITD + F691L. As to conditions: Mus musculus, Ba/F3, 48 hr, ± SEM. The format is cell-based. The method, then: (§1) Stable Ba/F3 lines were generated by retroviral spinfection with the appropriate mutated plasmid as previously described ([Smith et al., 2012]).
(§2) Exponentially growing cells (5 × 10^3 cells per well) were plated in each well of a 96-well plate with 0.1 ml of RPMI 1640 + 10% (vol/vol) FCS containing the appropriate concentration of drug in triplicate, and cell viability was assessed after 48 hr as previously described ([Smith et al., 2012]). […] Log10-scale transformation of ratios, followed by conditional formatting using xcel spreadsheet software yielded the colored diagrams shown.
(§3) Mutations isolated in the screen were engineered into pMSCVpuroFLT3–ITD by QuikChange mutagenesis (Stratagene, La Jolla, CA) as previously described ([Smith et al., 2012]).

The test system of another assay is HMC1.1 cells (KIT V560G). The experiment in a line: Cell proliferation/viability assay, HMC1.1. The format is cell-based, human. The procedure: as §2
In another assay the test system is Ba/F3 FLT3 ITD + Y842H. As to the kind of experiment: Ba/F3 cell viability, FLT3 ITD + Y842H. As to conditions: Mus musculus, Ba/F3, 48 hr, ± SEM. Format: cell-based. The method, then:
as §1, §2, §3

Another assay deals with Ba/F3 FLT3 D835Y. As to the kind of experiment: Ba/F3 cell viability, FLT3 D835Y. The format is cell-based. As to conditions: Mus musculus, BaF3; Ba/F3, 48 hr, ± SEM. The procedure: as §1, §2, §3
For another assay, the system named is Ba/F3 FLT3 ITD + A848P. The experiment in a line: Ba/F3 cell viability, FLT3 ITD + A848P. Format: cell-based. As to conditions: Mus musculus, Ba/F3, 48 hr, ± SEM. The method, then:
as §1, §2, §3

For another assay, the system named is HMC1.1 cells. The experiment in a line: Caspase-3 activation (apoptosis), HMC1.1. Format: cell-based, human. As to conditions: 48 hr, up to 2,500 nM. The procedure: Cells were fixed with 4% (vol/vol) paraformaldehyde (Electron Microscopy Sciences) and permeabilized with 100% (vol/vol) methanol (Electron Microscopy Sciences, Hatfield, PA) followed by staining with a FITC-conjugated antiactive caspase-3 antibody (BD Pharmingen, San Jose, CA). Cells were run on a BD LSRFortessa cell analyzer, and data were analyzed using FlowJo (Tree Star Inc., Ashland, OR). Percentage of live cells was determined by negative staining for activated caspase-3 (see Figure 2B,C).

For another assay, the system named is Ba/F3 Parental + IL3. As to the kind of experiment: Ba/F3 cell viability, Parental + IL3. The format is cell-based. As to conditions: Mus musculus, BaF3; Ba/F3, 48 hr, ± SEM. The method, then: as §1, §2
Another assay relates to Ba/F3 FLT3 ITD + D835Y. The experiment in a line: Ba/F3 cell viability, FLT3 ITD + D835Y. Format: cell-based. As to conditions: Mus musculus, Ba/F3, 48 hr, ± SEM. The method, then:
as §1, §2, §3

For another assay, the system named is Ba/F3 FLT3 ITD + Y842C. As to the kind of experiment: Ba/F3 cell viability, FLT3 ITD + Y842C. Format: cell-based. As to conditions: Mus musculus, Ba/F3, 48 hr, ± SEM. The procedure: as §1, §2, §3
Another assay deals with CSF1R (Homo sapiens, UniProt P07333). The experiment in a line: Reaction Biology Corp kinase assay at Km-ATP (Figure 1C), CSF1R.
Sequence of CSF1R (P07333 20-972): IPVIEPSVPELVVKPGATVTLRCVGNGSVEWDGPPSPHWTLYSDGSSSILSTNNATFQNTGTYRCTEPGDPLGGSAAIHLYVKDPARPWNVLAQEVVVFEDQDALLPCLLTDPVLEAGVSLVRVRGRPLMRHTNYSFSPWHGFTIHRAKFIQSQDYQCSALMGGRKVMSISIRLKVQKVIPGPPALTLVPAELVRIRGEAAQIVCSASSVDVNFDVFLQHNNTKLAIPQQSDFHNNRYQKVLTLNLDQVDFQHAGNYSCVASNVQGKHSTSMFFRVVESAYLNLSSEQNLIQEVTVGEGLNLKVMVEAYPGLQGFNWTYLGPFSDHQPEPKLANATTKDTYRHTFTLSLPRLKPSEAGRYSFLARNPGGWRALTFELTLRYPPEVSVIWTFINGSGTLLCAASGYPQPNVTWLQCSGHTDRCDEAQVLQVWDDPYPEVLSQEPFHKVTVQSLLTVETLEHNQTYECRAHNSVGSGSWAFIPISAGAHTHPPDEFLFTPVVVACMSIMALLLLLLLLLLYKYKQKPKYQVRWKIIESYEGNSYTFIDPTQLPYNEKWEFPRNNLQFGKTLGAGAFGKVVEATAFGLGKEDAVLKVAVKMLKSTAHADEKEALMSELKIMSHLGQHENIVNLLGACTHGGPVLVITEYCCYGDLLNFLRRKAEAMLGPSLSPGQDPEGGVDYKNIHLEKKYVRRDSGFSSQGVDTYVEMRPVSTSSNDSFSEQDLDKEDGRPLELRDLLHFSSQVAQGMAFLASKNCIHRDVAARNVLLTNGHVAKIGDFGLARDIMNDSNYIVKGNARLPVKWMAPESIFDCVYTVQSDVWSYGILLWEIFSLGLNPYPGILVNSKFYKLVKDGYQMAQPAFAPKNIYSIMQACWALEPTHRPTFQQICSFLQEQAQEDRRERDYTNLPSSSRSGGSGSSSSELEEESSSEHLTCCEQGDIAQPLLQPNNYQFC
The target of a further assay is T2, purified FLT3 WT (Homo sapiens, UniProt P36888).
T2 sequence (P36888 27-993): T1 sequence (P36888 27-993)
As to the kind of experiment: Radiolabeled purified kinase assay (Figure 1B).

For the compound `CC1NC(=O)c2c1c1c3ccccc3n(CCCN)c1c1[nH]c3ccccc3c21` (stereo not shown) [Star 27], the IC50 is less than 0.6 nM against FLT3; 144 ± 97 nM in the assay with Ba/F3 FLT3 ITD + F691L; greater than 5000 nM in the assay on HMC1.1 cells (KIT V560G) (Homo sapiens, Kit V560 G, 48 hr, ± SEM); 38 ± 24 nM in the assay with Ba/F3 FLT3 ITD + Y842H; 18 ± 12 nM with Ba/F3 FLT3 D835Y; 53 ± 31 nM in the assay with Ba/F3 FLT3 ITD + A848P. Further, the IC50 in the assay with Ba/F3 Parental + IL3 is 2300 nM; with Ba/F3 FLT3 ITD + D835Y, 39 ± 24 nM; with Ba/F3 FLT3 ITD + Y842C, 48 ± 29 nM; on CSF1R, greater than 9880 nM; on purified FLT3 WT it was 1.5 nM. Besides, in assay [1] (Homo sapiens, at 1000 nM, read-out: inhibition of colonies, FLT3-D835 (ITD−) blasts), the inhibition at 1 µM is roughly 60%. Further, the “raw colony numbers, FLT3 D835Y blasts” value in [1] (at 1,000 nM, ca. 120 for DMSO plates) is given as roughly 50. Moreover, the “selectivity window HMC1.1/MV4;11” value with HMC1.1 cells (KIT V560G) (ratio of proliferation IC50s) is recorded as greater than 122 fold. Besides, in the assay on HMC1.1 cells, the “apoptosis/toxicity (caspase-3) in KIT-addicted HMC1.1 cells” value is “very little up to 2,500 nM; also recorded: minimal apoptosis”. Also, the “CSF1R/FLT3 IC50 ratio” value at CSF1R (ratio of Figure 1C IC50s) was > 16,500.

Broadly, the IC50 is the concentration that inhibits the measured activity by half. A word on the inhibition: it is the drop in the measured response relative to a control, in per cent.
